{"source": "patent US4803209A", "about": "“Substituted 2,3-diphenyl-1,2-dihydroquinoxalines” (International Minerals & Chemical Corp., priority 1987, dated 1989)", "key": {"[1]": {"test_system": "Streptococcus sp. 1 X A7 (Strep A7)", "assay_type": "cell-based"}, "anaerobic bacteria": {"test_system": "anaerobic bacteria", "assay_type": "cell-based"}, "[2]": {"test_system": "Bacteroides fragilis (Bf)", "test": "Antimicrobial growth inhibition, Bf", "assay_type": "cell-based", "conditions": "Anaerobic, 6 h, 37° C."}, "[3]": {"test": "Growth promotion and feed utilization in chicks", "assay_type": "in vivo, chicks (broiler cockerels)"}, "[4]": {"test_system": "E. coli strain 046 (E.C. 046)", "assay_type": "cell-based"}, "[5]": {"test_system": "antibiotic resistant E. coli (E.C. 324)", "assay_type": "cell-based", "conditions": "Gram Neg., 6 h, 37° C., aerobic"}, "kidney cell monolayer": {"test_system": "kidney cell monolayer", "test": "Toxicity to cultured kidney cell monolayer in the in vitro anticoccidial test", "assay_type": "cell-based, chick", "parameters": "key: T: toxic (inhibited kidney cell monolayer formation)", "conditions": "3 days", "experimental": "For in vitro screen tests, Hubbard X Hubbard chicks were maintained on drug-free starter diets in brooders in a coccidia-free room. Water was available ad libitum. At 2-3 weeks of age, 3-6 chicks were sacrificed by decapitation and bled. All tissue culture preparation, propagation and test steps were carried out using strict aseptic techniques. Kidney cells next were combined in a single sterile tube and evenly dispersed by agitation. An appropriate dilution (usually 1/10X to 1/25X) was counted microscopically in a hemocytometer and the cell suspension diluted in 500 ml sterile bottles to 200,000 to 250,000 cells/ml of growth medium. Multiwell tissue culture plates (Falcon No. 3008 or Costar No. 3524) were employed in all in vitro screen tests. Immediately after preparation of the kidney cell suspension, each of the 24 wells of 20 to 60 multiwell plates was inoculated with 1 ml of cells using a sterile syringe-type continuous pipettor (Cornwall). Plates then were incubated at once in a 5% CO2 incubator at 39° C. and ≥80% humidity. At about 24 hours one plate was removed and briefly examined for monolayer initiation under phase microscopy at 200X. At 40-48 hours monolayer growth was well initiated and satisfactory for initiation of drug tests. At this time attached cells were spreading and putting out arm-like projections in many areas of each well. The medium on plates which would not be used for drug tests at this time was replaced with prewarmed EBSS plus antibiotics, and these plates were returned to the incubator until time of use 24 to 48 hours later. The latter step was incorporated to remove debris and toxins from the young cell monolayers and also delay monolayer growth until initiation of drug tests. For each test compound an estimated 10 mg of test compound was placed in a 15×150 mm disposable screw-cap test tube (Belco No. 2009-16150). In a typical test employing 25 multiwell plates, tubes containing test compounds were set up and four drops of dimethylsulfoxide (DMSO) were added to each tube. Next 10 ml sterile distilled water was added to each tube and the tubes were capped tightly and mixed by agitation. Primary compound solutions containing about 1000 ppm test compound were serially diluted in disposable tubes (Falcon No. 2051) containing 1/2 strength growth medium, to yield the concentrations shown in Table 3 below. Sterile 1 cc disposable syringes (Tomac) were employed both for making dilutions and adding test compounds to plates. In setting up drug tests, five multiwell plates containing 48-96 hr monolayers were removed as a group from the incubator. The medium was quickly poured off one multiwell plate and 0.5 ml of the lowest dilution of test compound was added to each of two wells in the first column of wells, and an equal volume of a higher dilution of the same substance was added to the remaining two wells in the same column. This procedure was repeated with the next test substance using the wells in the second column on the plate. Dilutions of the remaining test substances were placed in corresponding columns of the plate. After compounds had been added to the first set of five plates, 0.5 ml of a 2×10^5 /ml suspension of sporozoites was added to each well of each plate using a sterile continuous pipettor. To minimize the effects of exposing growth medium to the atmosphere, all additions were made rapidly and inoculated plates were immediately returned to the incubator. Three days after drug and sporozoite addition, plates were removed a few at a time from the incubator for enumeration of parasites. […] The medium was quickly discarded and counts made under phase microscopy at 200X of the total numbers of schizonts and […] per field in each of five random fields. The average number of parasites per field was then calculated. The results of the in vitro anticoccidial tests, which are given in Table 3 below, show the compounds to have toxic effects upon cultured cells."}, "[6]": {"test_system": "Streptococcus sp. 1 X C15 (Strep C15)", "assay_type": "cell-based"}, "[7]": {"test_system": "Clostridium perfringens (Cp)", "assay_type": "cell-based", "conditions": "Anaerobic, 6 h, 37° C."}, "Salmonella typhimurium": {"test_system": "Salmonella typhimurium", "assay_type": "cell-based"}, "[8]": {"test_system": "Eimeria tenella Eli Lilly Strain 65 (Lilly 65)", "test": "In vitro anticoccidial test in chick kidney cell monolayers", "assay_type": "cell-based", "conditions": "72 h, 3 days, read-out: % Inhibition of Coccidia"}, "[9]": {"conditions": "experiment set 5, 75 ppm in feed, 8 weeks"}}, "note": "Like-named read-outs stand apart in the source and are kept apart here.", "data": [{"smiles": "Oc1ccc(Cl)cc1C1=Nc2cc(Cl)c(Cl)cc2NC1c1cc(Cl)ccc1O", "note": "(stereo not drawn) [Example 1, 2,3-Di(2-hydroxy-5-chlorophenyl)-6-7-dichloro-1,2-dihydroquinoxaline]", "values": [{"measurement": "Growth of Strep A7 in the presence of the test compound", "setting": "[1]; 6.4 ppm", "result": "+"}, {"measurement": "Growth of Strep A7 in the presence of the test compound", "setting": "[1]; 64 ppm", "result": "+"}, {"measurement": "activity against anaerobic bacteria", "setting": "anaerobic bacteria", "result": "possessed activity against both anaerobic microorganisms"}, {"measurement": "Growth of Bf in the presence of the test compound", "setting": "[2]; 6.4 ppm", "result": "-"}, {"measurement": "Growth of Bf in the presence of the test compound", "setting": "[2]; 64 ppm", "result": "-"}, {"measurement": "feed efficiency (% better or worse than control)", "setting": "[3]; [9]", "result": 13, "unit": "%"}, {"measurement": "weight gain (% better or worse than control)", "setting": "[3]; [9]", "result": 6, "unit": "%"}, {"measurement": "growth promotion / feed efficiency", "setting": "[3]; in vivo", "result": "found to improve both weight gain and feed efficiency"}, {"measurement": "Growth of E.C. 046 in the presence of the test compound", "setting": "[4]; 6.4 ppm", "result": "+"}, {"measurement": "Growth of E.C. 046 in the presence of the test compound", "setting": "[4]; 64 ppm", "result": "+"}, {"measurement": "Growth of E.C. 324 in the presence of the test compound", "setting": "[5]; 6.4 ppm", "result": "+"}, {"measurement": "Growth of E.C. 324 in the presence of the test compound", "setting": "[5]; 64 ppm", "result": "+"}, {"measurement": "% Inhibition of Coccidia: T = toxic", "setting": "kidney cell monolayer; 10.0 ppm", "result": "T"}, {"measurement": "% Inhibition of Coccidia: T = toxic", "setting": "kidney cell monolayer; 100 ppm", "result": "T"}, {"measurement": "Growth of Strep C15 in the presence of the test compound", "setting": "[6]; 6.4 ppm", "result": "+"}, {"measurement": "Growth of Strep C15 in the presence of the test compound", "setting": "[6]; 64 ppm", "result": "+"}, {"measurement": "Growth of Cp in the presence of the test compound", "setting": "[7]; 6.4 ppm", "result": "-"}, {"measurement": "Growth of Cp in the presence of the test compound", "setting": "[7]; 64 ppm", "result": "-"}, {"measurement": "Growth of S.T. in the presence of the test compound", "setting": "Salmonella typhimurium; 6.4 ppm", "result": "+"}, {"measurement": "Growth of S.T. in the presence of the test compound", "setting": "Salmonella typhimurium; 64 ppm", "result": "+"}, {"measurement": "inhibition at 0.001 ppm", "setting": "[8]; 0.001 ppm", "result": 53, "unit": "%"}, {"measurement": "inhibition at 0.01 ppm", "setting": "[8]; 0.01 ppm", "result": 67, "unit": "%"}, {"measurement": "inhibition at 0.1 ppm", "setting": "[8]; 0.1 ppm", "result": 61, "unit": "%"}, {"measurement": "inhibition at 1 ppm", "setting": "[8]; 1.0 ppm", "result": 98, "unit": "%"}]}]}
